Measured values from patent publication US20240115731A1, “METHOD OF DELIVERING MRNA IN VIVO” (PCI Biotech AS, priority 2021, published 2024).

Legend:
[1] = tested on: thigh muscle of C57BL/6 mice; experiment: Intramuscular naked mRNA delivery, luciferase assay in muscle homogenates; type: in vivo
Excerpt: (§1) Female mice of the strain C57BL/6 (Charles River) were used. Animal identification and conditions of housing, acclimatisation, environment, diet and water was in accordance with the current Standard Operating Procedures at the animal facilities at Oslo University Hospital—The Radium Hospital. Age and weight at start of dosing: 5-6 weeks, 18-20 g. The injection area was shaved before illumination.
(§2) Firefly luciferase mRNA (L-7202—with modified base 5-methoxyuridine (5 moU), and with the TriLink CleanCap™ modification as the capping structure, purchased from TriLink Biotechnologies, San Diego, USA) was used.
(§3) TPCS2a (Amphinex®, PCI Biotech AS, Norway) was used mixed in a volume of 20 μl PBS (e.g. using a 0.000015 μg/μl solution for a 0.0003 μg dose).
(§4) mRNA (in aqueous solution, 20 μl of 0.1 μg/μl from stock solution of 1 μg/μl) in the amounts indicated in the table below were injected into the thigh muscle of each animal, with or without TPCS2a in the amounts indicated.
(§5) […] Animals 7-12 were not illuminated. 20 hours after the injections the animals were analysed by IVIS and assayed for luciferase activity (Luciferase Assay System, Promega, Cat #E1500) in muscle homogenates.
(§6) Muscle homogenates were prepared from frozen tissue samples using a Precelly homogenizer and lysis buffer with phosphatase and protease inhibitors (MSD, Cat. No. R60TX-2, R70AA-1). Protein analysis was performed using the DC Protein Assay (Biorad). Luciferase is expressed as relative units (RLU=relative luminescence units) per mass of protein in the samples.

BL/6 mouse skin [2] = experiment: Intradermal naked mRNA delivery, IVIS bio-luminescence imaging of injection sites; type: in vivo, mice; conditions: Example 5: intradermal, 2 μg mRNA + 0.003 μg TPCS2a, blue light 30 seconds after administration
Method: (§7) • 1. 20-24 hours after light (or TPCS2a injection), mice were given an intraperitoneal injection of 3 mg D-Luciferin (200 μl of 15 mg/ml stock). • 2. After approximately 10 minutes the mice were anaesthetized by a subcutaneous injection of Zoletil (15 mg/kg xylasin, 7.5 mg/kg butorphanol, 9 mg/kg zolazepam, and 9 mg tiletamine) • 3. 20 minutes after D-luciferin (Caliper Life Sciences) injection, the mice were placed in the IVIS instrument (IVIS Spectrum, model 124375R from PerkinElmer, Andor camera IS0825R4582; iKon Living Image version: 4.5.2.18424. Binning factor: 8; Excitation filter: Block; Emission filter: Open; f Number: 1) and pictures were taken with automatic exposure of Luminescence. • 4. Bio-luminescence is expressed as “Total Flux” (photon/second)×10^5.
(§8) The materials and methods were as used in Example 1, except that the administration was intradermal and blue light was used (wavelength between 400 and 540 nm with a peak at around 435 nm from the LumiSource illumination device produced by PCI Biotech AS, with a 13 mW/cm^2 fluence rate—a 6 minute illumination delivers 4.7 J/cm^2). Luciferase activity was assessed as set out in Example 1 except that skin homogenates were used.
The materials and methods were as used in Example 2. Animals were injected at two sites (left or right). IVIS was examined as set out in Example 1. […]

BL/6 mice = experiment: Conclusions from Examples: fold increase (PCI/mRNA alone), IVIS and luciferase assay; type: in vivo; conditions: illumination 30 seconds after mRNA/photosensitiser injection
Method: Good correspondence between the IVIS and luciferase assay results was observed. The fold increase (PCI/mRNA alone) with illumination only 30 seconds after mRNA/photosensitiser injection is higher than has been achieved in earlier experiments in which illumination was conducted 60 minutes after injection (3-5 times improvement). The improvement relative to using no photosensitiser is in the order of 30 fold. Shorter contact times were also effective at very low photosensitiser dose allowing for reduced side effects in subjects.

BL/6 mouse skin [3] = experiment: Intradermal naked mRNA delivery, luciferase assay in skin homogenates; type: in vivo, mice
Method: as §6, §8
The materials and methods were as used in Example 2. Luciferase activity was assessed as set out in Example 1 except that skin homogenates were used.
The materials and methods were as used in Example 3 but with even lower doses. Luciferase activity was assessed as set out in Example 1 except that skin homogenates were used.

[4] = tested on: thigh muscle of C57BL/6 mice; experiment: Intramuscular naked mRNA delivery, IVIS bio-luminescence imaging of injection sites; type: in vivo
Excerpt: as §1, §2, §3, §4, §5, §7

[5] = Example 6: intramuscular, 2 μg mRNA + 0.0003 or 0.0001 μg TPCS2a, blue light 30 seconds after injection

Substance: tetraphenyl chlorin disulfonate [TPCS2a]
- mean fold of increase for the PCI treated sites vs mRNA only sites (luciferase assay) ([1]; Example 1: intramuscular, 2 μg mRNA + 0.0003 μg TPCS2a, red light 652 nm 1 J/cm^2 5 minutes after injection, 20 hours): 4.9 times
- effectiveness of low photosensitiser dose (luminescence and luciferase activity) ([1]; Example 6: intramuscular, 2 μg mRNA + 0.0001 μg TPCS2a, blue light 30 seconds after injection): highly effective
- luciferase activity of PCI sites vs control sites receiving mRNA only [1, 5]: significantly stronger
- luciferase activity in muscle, effectiveness at lower dose ([1]; Example 7: intramuscular, 2 μg mRNA + 0.0003 μg TPCS2a, blue light 30 seconds after injection): effective
- luciferase activity in muscle, effectiveness by photosensitiser dose ([1]; Example 8: intramuscular, 2 μg mRNA + 0.0003 μg TPCS2a (vs 0.003 and 0.1 μg), blue light 10 minutes after injection): more effective than the higher doses
- increase by PCI (luciferase assay) ([1]; Example 9: intramuscular, 2 μg mRNA + 0.0001 μg TPCS2a, red light 0.3 to 3 J/cm^2, 5 minute interval): 8-9 fold
- effect of PCI (luciferase assay), 10 minute interval ([1]; Example 9: intramuscular, 2 μg mRNA + 0.0001 μg TPCS2a, red light 0.3 to 3 J/cm^2, 10 minute interval): effective but not at the same levels as the 5 minute interval
- increase of bio-luminescence of PCI sites vs control sites receiving mRNA only (BL/6 mouse skin [2]): around 7.2 fold
- improvement of fold increase (PCI/mRNA alone) with illumination 30 seconds after injection over earlier experiments with illumination 60 minutes after injection (BL/6 mice): 3-5 times
- improvement relative to using no photosensitiser (BL/6 mice): ~30 fold
- enhancement of mRNA delivery (luciferase assay), longer contact times (BL/6 mouse skin [3]; Example 2: intradermal, 2 μg mRNA + 0.003 μg TPCS2a, blue light, 30 or 60 min contact time): much less effective
- enhancement of mRNA delivery (luciferase assay) vs mRNA alone (BL/6 mouse skin [3]; Example 2: intradermal, 2 μg mRNA + 0.003 μg TPCS2a, blue light, 10 minute contact time): about 20 times
- luciferase activity in skin, effectiveness by photosensitiser dose (BL/6 mouse skin [3]; Example 3: intradermal, 2 μg mRNA + 0.003 μg TPCS2a (vs 0.01 and 0.05 μg), blue light 30 seconds after injection): more effective than higher doses
- luciferase activity in skin, effectiveness at lower dose (BL/6 mouse skin [3]; Example 4: intradermal, 2 μg mRNA + 0.0003 μg TPCS2a, blue light 30 seconds after injection): effective
- bio-luminescence of PCI sites vs control sites receiving mRNA only ([4]; Example 1: intramuscular, 2 μg mRNA + 0.0003 μg TPCS2a, red light 1 J/cm^2 5 minutes after injection): significantly stronger luminescence
- bio-luminescence of PCI sites vs control sites receiving mRNA only [4, 5]: significantly stronger luminescence
- bio-luminescence, effect of PCI at very low dose ([4]; Example 10: intramuscular, 2 μg mRNA + 0.000003 μg TPCS2a, red light 1 J/cm^2, 5 minute interval): An effect was observed
- increase of bio-luminescence by PCI ([4]; Example 10: intramuscular, 2 μg mRNA + 0.0001 μg TPCS2a, red light 1 J/cm^2, 5 minute interval): 5 fold
- increase of bio-luminescence by PCI ([4]; Example 10: intramuscular, 2 μg mRNA + 0.0003 μg TPCS2a, red light 1 J/cm^2, 5 minute interval): 7 fold
